Experimental data from patent US10980764B1, “Exogenous ketone supplements for reducing anxiety-related behavior” (priority 2016, dated 2021).

Legend:
Type in all cases: in vivo, rat
[1] = Blood βHB and glucose compared between the two animal models, Study 3; settings: after sub-chronic ketone supplementation (7 days; ~2.5 vs ~5 g/kg b.w./day)
Description: (§1) Results were considered significant when p<0.05.

[2] = Blood βHB and glucose ~40 min after single dose, 1 year old SPD rats, Study 2; settings: right after 5 min EPM test, compared to control group
Protocol: One year old SPD rats were gavaged and EPM test was performed 30 min after administration. Treatment groups BD, KE, KEMCT, KSMCT, KEKS.
Another study was carried out using substantially similar methodologies and procedures as in Study 1, specifically using the EPM test to evaluate anxiety-related behavior in 1-year old SD rats when administered ketone supplementation versus control.

WAG/Rij rats = experiment: EPM after 7 days oral gavage, WAG/Rij rats, Study 3; settings: 7 days gavage ~2.5 g/kg b.w./day
Protocol: Generally, exogenous ketone supplementation was tested by adding to food and feeding chronically for 83 days in SPD rats and administering sub-chronically for 7 days in both rat models by daily intragastric gavage bolus, followed by assessment of anxiety measures on EPM. The groups included standard diet (SD) or SD+ketone supplementation.
EPM (Coulbourn Instruments) was used to assess anxiety-related behavior of the rats after 83 days of chronic feeding or after 7 days of oral gavage. EPM experiments were carried out under non-stress conditions (in dimly lit and quiet room) between 12.00 and 14.00 hours.
The rats were transferred in their home cage to the experimental room 30 min prior to beginning the experiment. Briefly, rats were placed in the intersection of the four arms of the EPM, facing the open arm opposite to where the experimenter was and their behavior was recorded for 5 minutes. The amount of time spent and number of entries made on the open arms, closed arms and the center zones were video recorded. Latency to entry into the closed arms and the distance travelled in each zones was also measured in chronically treated SPD rats. […] At the end of the 5-minute test, the rats were removed from the maze and placed back into their home cage. The maze was cleaned with 70% alcohol and after it with tap water and dried with paper towel between rats. […]

[3] = Body weight, SPD rats, Study 3; settings: compared to control
Protocol: The body weight of all animals was recorded before the first ketone treatment (before) and on the last day of the ketone treatment (after).
as §1

CC(=O)CC(=O)OCCC(C)OC(=O)CC(C)=O (stereo not drawn) [KE, 1,3-butanediol-acetoacetate diester]
βHB levels in WAG/Rij rats compared to SPD rats [1]: Higher | Blood glucose level [2]: significantly lower | Entries to open arms (WAG/Rij rats; compared to control): less entries | Time spent in the center (WAG/Rij rats; compared to control (SD)): more time | Body weight ([3]; after 7 days of treatment): lower | Body weight ([3]; after chronic feeding): lower
